Test results from patent US8759011B2, “Assay system for determining binding of hydrophobic drugs” (Nederlandse Organisatie voor …, priority 2009, dated 2014).

System: human plasma
Assay: plasma binding by partition extraction in dimethylsiloxane-coated 96-well plates
Assay type: in vitro ADME
Conditions: for counts in the polymer coating: one plate
Procedure: 96-wells deepwell plates (lot 1450-401 Perkin-Elmer Lifesciences) were coated with dimethylsiloxane by making the solutions A-H here below in n-hexane. The used dimethylsiloxane (Silicone rubber, GE Silicones, Bergen op Zoom, The Netherlands) has a density of 1.06. Solution H contains 9.54 g dimethylsiloxane in 300 ml n-hexane.
From solutions A-H 100 μl is pipetted in row A-H of each plate. Plates were dried to air for minimally 18 hours (overnight).
To each dilution of plasma (solutions 1-12) an identical amount of the compound to be tested is added (about […]/200 μl solution). […] The solutions are incubated with the compound overnight at 4°.
The plasma solutions 1-12 are added to corresponding columns 1-12 of each plate (200 μl/well). Also 200 μl was added to a separate vessel to be able to correct for (plasma concentration dependent) solubilization. The next day the plates are emptied, washed once with aqua bidest and dried. When sufficient dry in all wells 200 μl counting solution (Optiphase Hisafe 2, Perkin Elmer Lifesciences) is added and the plates are covered. After incubation for minimally 4 hours under gently shaking the radioactivity in each plate is determined using liquid scintillation counting with a MicroBeta device (Perkin Elmer).
Additionally a total count was determined for each well. The total count is the count in the polymer coating+the count in the remaining fluid. The latter was determined by isolating 25 μl from solution in each well prior to emptying, and mixing with Optiphase (Perkin Elmer) followed by liquid scintillation counting.
1. For each datapoint for which the total count was determined, the recovery of total radioactivity was determined by comparing with the counts of the reference spiking solution. Cells with a total recovery <75% were excluded from further data analysis.
2. From all rows containing polymer, the a-specific binding, i.e. the corresponding counts from the row without polymer, was substracted.
3. Curve fitting was applied using the following formula for each cell:
Predicted counts in coating=Tc/((1/ffp+1/fp−1)×(fp×Vw)/Kpdms/Vp)), where
The above formula was fitted using ffp and Kpdms target parameters to be optimized using the least squares regression method over all wells that were included in the data analysis, by calculating the squared difference between the measured counts in the coating and the predicted counts in the coating. Results

C=C1CC[C@H](O)C/C1=C/C=C1\CCC[C@]2(C)[C@@H]([C@H](C)CCCC(C)(C)O)CC[C@@H]12 [25-hydroxy vitamin D3]
Free fraction ± s.d. (fitted free fraction for 100% plasma, ratio between free fraction and total concentration, average of six 96 well plates): 0.000502 ± 0.000060
counts in the polymer coating (plasma 0 ml/ml, coating 0 nl): 1529
counts in the polymer coating (plasma 0 ml/ml, coating 4.1 nl): 2095
counts in the polymer coating (plasma 0 ml/ml, coating 10.2 nl): 3498
counts in the polymer coating (plasma 0 ml/ml, coating 25.6 nl): 4260
counts in the polymer coating (plasma 0 ml/ml, coating 64 nl): 5814
counts in the polymer coating (plasma 0 ml/ml, coating 160 nl): 7292
counts in the polymer coating (plasma 0 ml/ml, coating 400 nl): 8015
counts in the polymer coating (plasma 0 ml/ml, coating 1000 nl): 8491
counts in the polymer coating (plasma 0.0005 ml/ml, coating 0 nl): 639
counts in the polymer coating (plasma 0.0005 ml/ml, coating 4.1 nl): 1753
counts in the polymer coating (plasma 0.0005 ml/ml, coating 10.2 nl): 2581
counts in the polymer coating (plasma 0.0005 ml/ml, coating 25.6 nl): 4428
counts in the polymer coating (plasma 0.0005 ml/ml, coating 64 nl): 8145
counts in the polymer coating (plasma 0.0005 ml/ml, coating 160 nl): 12361
counts in the polymer coating (plasma 0.0005 ml/ml, coating 400 nl): 15727
counts in the polymer coating (plasma 0.0005 ml/ml, coating 1000 nl): 16960
counts in the polymer coating (plasma 0.0008 ml/ml, coating 0 nl): 495
counts in the polymer coating (plasma 0.0008 ml/ml, coating 4.1 nl): 1176
counts in the polymer coating (plasma 0.0008 ml/ml, coating 10.2 nl): 1649
counts in the polymer coating (plasma 0.0008 ml/ml, coating 25.6 nl): 3019
counts in the polymer coating (plasma 0.0008 ml/ml, coating 64 nl): 6029
counts in the polymer coating (plasma 0.0008 ml/ml, coating 160 nl): 10164
counts in the polymer coating (plasma 0.0008 ml/ml, coating 400 nl): 13748
counts in the polymer coating (plasma 0.0008 ml/ml, coating 1000 nl): 15479
counts in the polymer coating (plasma 0.001 ml/ml, coating 0 nl): 419
counts in the polymer coating (plasma 0.001 ml/ml, coating 4.1 nl): 972
counts in the polymer coating (plasma 0.001 ml/ml, coating 10.2 nl): 1545
counts in the polymer coating (plasma 0.001 ml/ml, coating 25.6 nl): 2658
counts in the polymer coating (plasma 0.001 ml/ml, coating 64 nl): 5501
counts in the polymer coating (plasma 0.001 ml/ml, coating 160 nl): 9700
counts in the polymer coating (plasma 0.001 ml/ml, coating 400 nl): 13183
counts in the polymer coating (plasma 0.001 ml/ml, coating 1000 nl): 15022
counts in the polymer coating (plasma 0.003 ml/ml, coating 0 nl): 151
counts in the polymer coating (plasma 0.003 ml/ml, coating 4.1 nl): 399
counts in the polymer coating (plasma 0.003 ml/ml, coating 10.2 nl): 603
counts in the polymer coating (plasma 0.003 ml/ml, coating 25.6 nl): 1258
counts in the polymer coating (plasma 0.003 ml/ml, coating 64 nl): 2547
counts in the polymer coating (plasma 0.003 ml/ml, coating 160 nl): 5687
counts in the polymer coating (plasma 0.003 ml/ml, coating 400 nl): 9284
counts in the polymer coating (plasma 0.003 ml/ml, coating 1000 nl): 11307
counts in the polymer coating (plasma 0.005 ml/ml, coating 0 nl): 109
counts in the polymer coating (plasma 0.005 ml/ml, coating 4.1 nl): 257
counts in the polymer coating (plasma 0.005 ml/ml, coating 10.2 nl): 428
counts in the polymer coating (plasma 0.005 ml/ml, coating 25.6 nl): 866
counts in the polymer coating (plasma 0.005 ml/ml, coating 64 nl): 1719
counts in the polymer coating (plasma 0.005 ml/ml, coating 160 nl): 3804
counts in the polymer coating (plasma 0.005 ml/ml, coating 400 nl): 7410
counts in the polymer coating (plasma 0.005 ml/ml, coating 1000 nl): 10375
counts in the polymer coating (plasma 0.008 ml/ml, coating 0 nl): 95
counts in the polymer coating (plasma 0.008 ml/ml, coating 4.1 nl): 212
counts in the polymer coating (plasma 0.008 ml/ml, coating 10.2 nl): 372
counts in the polymer coating (plasma 0.008 ml/ml, coating 25.6 nl): 686
counts in the polymer coating (plasma 0.008 ml/ml, coating 64 nl): 1331
counts in the polymer coating (plasma 0.008 ml/ml, coating 160 nl): 3035
counts in the polymer coating (plasma 0.008 ml/ml, coating 400 nl): 5863
counts in the polymer coating (plasma 0.008 ml/ml, coating 1000 nl): 9044
counts in the polymer coating (plasma 0.01 ml/ml, coating 0 nl): 90
counts in the polymer coating (plasma 0.01 ml/ml, coating 4.1 nl): 169
counts in the polymer coating (plasma 0.01 ml/ml, coating 10.2 nl): 293
counts in the polymer coating (plasma 0.01 ml/ml, coating 25.6 nl): 523
counts in the polymer coating (plasma 0.01 ml/ml, coating 64 nl): 1054
counts in the polymer coating (plasma 0.01 ml/ml, coating 160 nl): 2408
counts in the polymer coating (plasma 0.01 ml/ml, coating 400 nl): 5093
counts in the polymer coating (plasma 0.01 ml/ml, coating 1000 nl): 8309
counts in the polymer coating (plasma 0.02 ml/ml, coating 0 nl): 82
counts in the polymer coating (plasma 0.02 ml/ml, coating 4.1 nl): 98
counts in the polymer coating (plasma 0.02 ml/ml, coating 10.2 nl): 182
counts in the polymer coating (plasma 0.02 ml/ml, coating 25.6 nl): 278
counts in the polymer coating (plasma 0.02 ml/ml, coating 64 nl): 641
counts in the polymer coating (plasma 0.02 ml/ml, coating 160 nl): 1394
counts in the polymer coating (plasma 0.02 ml/ml, coating 400 nl): 3130
counts in the polymer coating (plasma 0.02 ml/ml, coating 1000 nl): 5582
counts in the polymer coating (plasma 0.03 ml/ml, coating 0 nl): 62
counts in the polymer coating (plasma 0.03 ml/ml, coating 4.1 nl): 75
counts in the polymer coating (plasma 0.03 ml/ml, coating 10.2 nl): 130
counts in the polymer coating (plasma 0.03 ml/ml, coating 25.6 nl): 237
counts in the polymer coating (plasma 0.03 ml/ml, coating 64 nl): 409
counts in the polymer coating (plasma 0.03 ml/ml, coating 160 nl): 988
counts in the polymer coating (plasma 0.03 ml/ml, coating 400 nl): 2209
counts in the polymer coating (plasma 0.03 ml/ml, coating 1000 nl): 4228
counts in the polymer coating (plasma 0.04 ml/ml, coating 0 nl): 55
counts in the polymer coating (plasma 0.04 ml/ml, coating 4.1 nl): 68
counts in the polymer coating (plasma 0.04 ml/ml, coating 10.2 nl): 87
counts in the polymer coating (plasma 0.04 ml/ml, coating 25.6 nl): 153
counts in the polymer coating (plasma 0.04 ml/ml, coating 64 nl): 342
counts in the polymer coating (plasma 0.04 ml/ml, coating 160 nl): 722
counts in the polymer coating (plasma 0.04 ml/ml, coating 400 nl): 1681
counts in the polymer coating (plasma 0.04 ml/ml, coating 1000 nl): 3295
counts in the polymer coating (plasma 0.05 ml/ml, coating 0 nl): 47
counts in the polymer coating (plasma 0.05 ml/ml, coating 4.1 nl): 48
counts in the polymer coating (plasma 0.05 ml/ml, coating 10.2 nl): 70
counts in the polymer coating (plasma 0.05 ml/ml, coating 25.6 nl): 153
counts in the polymer coating (plasma 0.05 ml/ml, coating 64 nl): 296
counts in the polymer coating (plasma 0.05 ml/ml, coating 160 nl): 588
counts in the polymer coating (plasma 0.05 ml/ml, coating 400 nl): 1354
counts in the polymer coating (plasma 0.05 ml/ml, coating 1000 nl): 2501
